Test results from patent US11572373B2, “Maytansinoid-based drug delivery systems” (LADRX CORPORATION, priority 2017, dated 2023).
Marks after values point to notes of the source that are not given here.

Columns and labels:
[1] = Stability and release kinetics of maytansinoid-HSA conjugates in buffer solution at pH 4.0 and pH 7.4; format: physicochemical; conditions: maytansinoid-HSA conjugate, PBS pH 7.4, 37° C.
[2] = test system: human tumor xenograft models; test: Antitumor activity in human tumor xenograft mice models; format: in vivo; conditions: five human tumor xenograft models in nude mice, i.v. on day 1, 8, 15, and 22
From the text: This included starting tumor volumes in the range of approximately 80-110 mm^3 but also initial starting tumor volumes of up to approximately 400 mm^3. Furthermore, in most cases therapy with albumin-binding maytansinoids 30 and 31 induced long-term remissions and a decrease in Relative Tumor Volume (RTV). […] Experimental procedure and the results in the tumor-bearing mice models are described in detail in Examples 11-19 and FIGS. 3-16.
Female immunodeficient NMRI nude mice, from Charles River, received unilateral tumor implants subcutaneously in the left flank while under isoflurane anesthesia with human cancer tumors until tumors were palpable and had reached a volume of 80-200 mm^3 (unless otherwise stated).
Animals were kept in cages, the temperature inside the cages maintained at 25±1° C. with a relative humidity of 45-65% and an air change rate in the cage of 60-fold per hour. They were kept under a 14 h light: 10 h dark, artificial light cycle. The animals were fed with autoclaved Teklad Global 19% Protein Extruded Diet (T.2019S.12) from Envigo RMS SARL and had access to sterile filtered and acidified (pH 2.5) tap water, which was changed twice weekly. Feed and water were provided ad libitum. […] Animals were routinely monitored twice daily on working days and daily on Saturdays and Sundays. […] Relative body weights (RBW) of individual animals were calculated by dividing the individual absolute body weight on day X (BWx) by the individual body weight on the day of randomization multiplied by 100%. The tumor volume was determined by a two-dimensional measurement with calipers on the day of randomization (day 0) and then twice weekly. Tumor volumes were calculated according to the following equation: Tumor Vol [mm^3]=1 [mm]×w^2 [mm^2]×0.5, where “1” is the length and “w” is width of the tumor. The relative volume of an individual tumor on day X (RTVx) was calculated by dividing the absolute individual tumor volume [mm^3] of the respective tumor on day X (Tx) by the absolute individual tumor volume of the same tumor on the day of randomization multiplied by 100%. […]

SMILES: COc1cc2cc(c1Cl)N(C)C(=O)C[C@H](OC(=O)COc1cccc(/C(C)=N/NC(=O)c3ccc(NC(=O)CCCCCN4C(=O)C=CC4=O)cc3S(=O)(=O)O)c1)[C@]1(C)O[C@H]1[C@H](C)[C@@H]1C[C@@](O)(NC(=O)O1)[C@H](OC)/C=C/C=C(\C)C2 [Compound 31]
- free maytansinoid after 24 h at pH 7.4 ([1]; measured at 100 μM): 3.7%**
- free maytansinoid after 24 h at pH 7.4 ([1]; measured at 200 μM): 4.0%*
- antitumor activity [2]: partial and complete tumor regressions
